{"source": "patent US7879791B2", "about": "(Medical College of Georgia Research Institute, Inc., priority 1997, dated 2011)", "molecules": {"B1": {"name": "IFNγ: recombinant interferon gamma, inducer of IDO (protein, UniProt P01579 24-161, looked up)", "Interferon gamma": "QDPYVKEAENLKKYFNAGHSDVADNGTLFLGILKNWKEESDRKIMQSQIVSFYFKLFKNFKDDQSIQKSVETIKEDMNVKFFNSNKKKRDDFEKLTNYSVTDLNVQRKAIHELIQVMAELSPAAKTGKRKRSQMLFRG"}, "B2": {"name": "CD40L: recombinant CD40L prepared as a homo-trimer to signal via CD40 in soluble form (protein, UniProt P29965 47-261, looked up)", "extracellular domain": "HRRLDKIEDERNLHEDFVFMKTIQRCNTGERSLSLLNCEEIKSQFEGFVKDIMLNKEETKKENSFEMQKGDQNPQIAAHVISEASSKTTSVLQWAEKGYYTMSNNLVTLENGKQLTVKRQGLYYIYAQVTFCSNREASSQAPFIASLCLKSPGRFERILLRAANTHSSAKPCGQQSIHLGGVFELQPGASVFVNVTDPSQVSHGTGFTSFGLLKL", "modifications": "extracellular domain soluble homo-trimer", "notes": "recombinant CD40L prepared as a homo-trimer to signal via CD40 in soluble form"}}, "key": {"[1]": {"tested_on": "tryptophan transport system in MCSF-derived macrophages", "experiment": "[3H]tryptophan uptake in MCSF-derived macrophages with competing unlabeled amino acids", "format": "cell-based, human", "conditions": "for effectiveness as competitor for tryptophan uptake compared with phenylalanine: titration studies", "description": "The graph compares fresh monocytes, MCSF-derived macrophages (day 7), and MCSF-derived macrophages activated for the preceding 24 hrs with IFNγ. All assays were performed in the presence of 140 mM NaCl. […] A logarithmic scale is used to permit comparison.\nMacrophages were cultured for 7 days in MCSF and activated during the last 24 hrs with IFNγ.\nThis sodium-independent system was then characterized using cross-competition studies."}, "[2]": {"conditions": "patients / individuals, literature reports; cited from earlier work"}, "[3]": {"tested_on": "T cells", "experiment": "T cell proliferation (thymidine incorporation) in co-culture conditioned medium with tryptophan titrated back", "format": "cell-based, human", "description": "FIG. 1 is a graph of thymidine incorporation (cpm) by T cells in the presence of supplemental amino acids. […] Human monocytes were allowed to differentiate into macrophages then co-cultured with mitogen-activated T cells (anti-CD3). Fresh PBMC were then suspended in this medium and activated with additional anti-CD3. […] Control cultures received fresh medium. Proliferation was measured by 4 hr thymidine incorporation after 72 hrs. Error bars show SD.\nFresh lymphocytes were suspended in conditioned medium and activated with additional mitogen. Care was taken to exclude all traces of fresh medium."}, "[4]": {"tested_on": "MCSF-derived macrophages", "experiment": "Elimination kinetics of tryptophan in co-cultures of MCSF-derived macrophages and mitogen-activated T cells", "format": "cell-based, human", "conditions": "when tryptophan was not limiting", "description": "MCSF-derived macrophages were cultured for 24 hrs with autologous T cells, with or without anti-CD3 mitogen. The medium was replaced with fresh medium, and supernatant from replicate cultures harvested at the times shown. […] Error bars (less than 10%) are omitted for clarity.\nDepletion of tryptophan is rapid. Macrophages were co-cultured with T cells and mitogen for 24 hrs to allow up-regulation of the tryptophan-depletion pathway, then fresh medium was added and the kinetics of elimination measured. […] This rapid rate of tryptophan depletion could not be attributed to consumption by cellular metabolism."}, "[5]": {"target": "T1, IDO (Homo sapiens, UniProt P14902)", "experiment": "Macrophage-mediated suppression of T cell proliferation in co-cultures of MCSF-derived macrophages and T cells with anti-CD3", "format": "cell-based", "parameters": "endogenous in cells; host or cells: MCSF-derived human monocyte-derived macrophages co-cultured with T cells", "conditions": "10x normal tryptophan", "description": "Proliferation was measured after 72 hrs by thymidine incorporation. The level of background proliferation contributed by macrophages is indicated by the dotted line. In FIG. 4B, macrophages were seeded at both low density (5×10^4/well) and high density (2×10^5/well)."}, "[6]": {"tested_on": "MB49 tumor cells", "experiment": "MB49 epithelial carcinoma in syngeneic hosts", "format": "in vivo, mouse", "description": "In light of the data herein showing that the allogeneic fetus is able to protect itself against attack by the maternal immune system through expression of IDO, and given the expression of IDO in tumors as cited above, it was tested whether a similar mechanism allowed tumor cells to evade immune attack. The MB49 epithelial carcinoma model was chosen for proof of concept because it is an aggressive, lethal malignancy when innoculated into syngeneic hosts, but it can be rendered susceptible to immune attack if the host's immune system is suitably activated (Chen, et al. 1997 J. Immunol. 159, 351-359). […] MB49 tumor cells (1×10^6) were injected subcutaneously into syngeneic C57/B16 hosts. […] By day 10, all animals had evidence of initial tumor formation (palpable mass). By day 15, control animals were visibly ill and the experiment was terminated. Animals were sacrificed on day 11-15 for histologic examination."}, "[7]": {"tested_on": "MCSF-derived macrophages", "experiment": "Induction of IDO activity (tryptophan degradation) in MCSF-derived macrophages by IFNγ with or without CD40L", "format": "cell-based, human", "excerpt": "MCSF-derived macrophages were activated for 24 hrs with various concentrations of recombinant IFNγ, in the presence or absence of recombinant CD40-L trimer. […] SD was less than 10%.\nThe response of MCSF-derived macrophages to IFNγ in the presence or absence of recombinant CD40L (prepared as a homo-trimer in order to signal via CD40 in soluble form, gift of Bill Fanslow, Immunex Corporation) was compared."}, "[8]": {"target": "T1, IDO", "parameters": "host or cells: tumor xenografts in IFNγ-treated animals", "conditions": "IFNγ-treated animals; cited from earlier work"}, "[9]": {"conditions": "group n = 7, pellets 0.9 mg/hr, 7-day release"}}, "data": [{"molecule": "N[C@@H](Cc1ccc(O)cc1)C(=O)O", "note": "[Tyrosine]", "values": [{"measurement": "effectiveness as competitor for tryptophan uptake compared with phenylalanine", "setting": "[1]", "result": "even less effective competitors"}]}, {"molecule": "CC(n1cc(C[C@H](N)C(=O)O)c2ccccc21)n1cc(C[C@H](N)C(=O)O)c2ccccc21", "note": "[1-1′ ethylidenebis-[tryptophan]]", "values": [{"measurement": "autoimmune or adverse illness reported", "setting": "[2]", "result": "eosinophilia-myalgia syndrome"}]}, {"molecule": "N[C@@H](Cc1c[nH]c2ccccc12)C(=O)O", "note": "[tryptophan]", "values": [{"measurement": "EC50", "setting": "[3]; Homo sapiens, T-cell, 72 h, read-out: half-maximal concentration for T cell proliferation", "result": "~0.5", "unit": "µM"}, {"measurement": "concentration sufficient to initiate low but readily detectable T cell proliferation", "setting": "[3]; tryptophan in conditioned medium", "result": 50, "unit": "nM"}, {"measurement": "initial rate of tryptophan elimination", "setting": "[4]", "result": "up to 20,000 pmol/10^6 cells/hr"}, {"measurement": "autoimmune or adverse illness reported", "setting": "[2]", "result": "multiple autoimmune disorders"}, {"measurement": "reversal of suppression by supplemental tryptophan", "setting": "[5]; high seeding density (2x10^5/well)", "result": "remained able to suppress"}, {"measurement": "reversal of suppression by supplemental tryptophan", "setting": "[5]; low seeding density (5x10^4/well)", "result": "effectively reversed suppression"}]}, {"molecule": "NC1(C(=O)O)CC2CCC1C2", "note": "(centres unmarked) [BCH, 2-amino-2-norborane-carboxylic acid]", "values": [{"measurement": "total tryptophan transport still available", "setting": "[1]; system L inhibited by 8 mM BCH", "result": "30-50%"}, {"measurement": "effectiveness as competitor for tryptophan uptake compared with phenylalanine", "setting": "[1]", "result": "even less effective competitors"}]}, {"molecule": "N[C@@H](Cc1c[nH]c2ccc(O)cc12)C(=O)O", "note": "[L-5-hydroxytryptophan]", "values": [{"measurement": "autoimmune or adverse illness reported", "setting": "[2]", "result": "high frequency of a scleroderma-like illness"}]}, {"molecule": "Cn1cc(C[C@H](N)C(=O)O)c2ccccc21", "note": "[1-methyl-tryptophan]", "values": [{"measurement": "continuation of responses after the period of inhibitor administration", "setting": "[6]; administration days 1-7", "result": "4 to 7", "unit": "days"}, {"measurement": "histology (day 15)", "setting": "[6]; day 15", "result": "apoptosis, necrosis,"}, {"measurement": "complete responses", "setting": "[6]; [9]", "result": 1}, {"measurement": "partial responses", "setting": "[6]; [9]", "result": 6}, {"measurement": "tumor growth compared to vehicle control", "setting": "[6]; immunocompetent, syngeneic hosts", "result": "significantly reduced tumor growth"}, {"measurement": "performance status", "setting": "[6]; mouse, in vivo", "result": "normal"}, {"measurement": "visible metastases", "setting": "[6]; mouse, in vivo", "result": "none"}, {"measurement": "size of residual tumor", "setting": "[6]; residual tumor necrotic", "result": "1 cm (necrotic)"}]}, {"molecule": "N[C@@H](Cc1ccccc1)C(=O)O", "note": "[phenylalanine]", "values": [{"measurement": "inhibition of tryptophan uptake by competing unlabeled amino acid", "setting": "[1]; 8 mM each, sodium-independent, FIG. 8B", "result": "could not fully block"}]}, {"molecule": "CC(C)C[C@H](N)C(=O)O", "note": "[leucine]", "values": [{"measurement": "effectiveness as competitor for tryptophan uptake compared with phenylalanine", "setting": "[1]", "result": "even less effective competitors"}]}, {"molecule": "IFNγ: recombinant interferon gamma, inducer of IDO", "values": [{"measurement": "IFNγ concentration at which significant response occurred", "setting": "[7]; in the presence of CD40L", "result": "≥ 1", "unit": "U/ml"}, {"measurement": "concentration required for maximal induction of tryptophan degradation", "setting": "[7]; recombinant IFNγ alone, 24 hrs", "result": "≥ 100", "unit": "U/ml"}]}, {"molecule": "B1", "values": [{"measurement": "reduction in tumor tryptophan compared to controls", "setting": "[8]", "result": "approximately 80%"}]}, {"molecule": "B2", "values": [{"measurement": "effect on enzyme activity", "setting": "[7]; CD40L alone", "result": "little effect"}, {"measurement": "shift of the dose-response curve of IFNγ", "setting": "[7]; CD40L combined with IFNγ", "result": "one to two orders of magnitude"}]}]}
